{
  "source": "patent US7175872B2",
  "about": "“Pyridinium-Betain compounds for use as taste modulators” (Nestec S.A., priority 2002, dated 2007)",
  "format_in_all_cases": "in vivo",
  "key": {"sweet taste of sucrose": {"system": "sweet taste of sucrose", "experiment": "Sweet taste detection threshold of sucrose/Pyridinium-Betaine mixtures (triangle test, sensory panel)", "set-up": "key to Threshold decrease: fold decrease of sweet threshold vs pure sucrose", "conditions": "equimolar mixture with sucrose; for Threshold decrease: vs sucrose in water 12.5 mmol/L", "procedure": "(§1) • Sensory panel training: […] Sensory analyses were performed in a sensory panel room at 22-25° C. on three different sessions. • Taste thresholds: The taste thresholds of the tastants or mixtures containing basic tastants plus Pyridinium-Betains were determined in a triangle test using Evian® mineral water as the solvent at a defined pH ([…] and H.-D. Belitz, Z. Lebensm. Unters. Forsch. 1975, 159, 65-72). The samples (3 mL) were presented in order of increasing concentrations (serial 1:1 dilutions). The threshold values evaluated in two different sessions were averaged. […] The taste intensities of aqueous (Evian®) solutions containing a basic tastant, such as glucose and MSG, for example, in constant concentrations and the compounds of the general formula (A), for example […], in various concentrations were compared with those of a solution containing the basic tastant only. To achieve this, triangle tests were performed with two glass vials containing the basic tastant in constant concentrations, and one glass vial containing a stepwise 1:1-diluted mixture of basic […]. […] The relative taste strength (taste enhancing factor) of a mixture containing the basic […] was related to the basic tastants glucose, MSG, or other tastants, respectively, as standard substances, and was determined as the ratio of the concentrations c of iso-intensely tasting solutions of the basic tastant, such as glucose (glc), and the mixture containing tastant plus Pyridinium-Betain, […])=[…] This taste enhancing effect is illustrated in examples. The sweet taste thresholds of equimolar mixtures of sweet tasting compounds and various Pyridinium-Betaines were determined by a triangle test using EVIAN® mineral water as the solvent. The sensorial evaluations were performed at different pH values. The equimolar mixture of […] and sucrose at pH 7.0 was evaluated with a 4-fold lower sweet threshold concentration than pure sucrose (Table 1)."}, "sweet taste of glucose": {"system": "sweet taste of glucose", "experiment": "Sweet taste detection threshold of glucose/Pyridinium-Betaine mixtures (triangle test, sensory panel)", "conditions": "equimolar mixture with glucose; for Threshold decrease: vs glucose in water 50.0 mmol/L", "procedure": "as §1, with “1). […] is able to reduce the sweet threshold of glucose 16-fold at pH 7.0 and pH 9.0, whereas at pH 5.0 a gain the sweet taste perception […] (Table 2). […] Using the dipeptide derivative (S)-[…] as a taste-enhancer leads to a 16-fold threshold reduction compared to glucose.” for “1).”"}, "salty taste of NaCl": {"system": "salty taste of NaCl", "experiment": "Salt-intensity ranking of NaCl/Pyridinium-Betaine mixtures by sensory panel", "conditions": "20 mmol/L each, pH 7.0; scale 0 (not salty) to 5 (very salty), reference NaCl-solution ranked as 1", "text": "The salt-intensities of various NaCl/Pyridinium-Betaine mixtures (20 mmol/L each) were compared to a 20 mmol/L NaCl standard solution. The sensory panel was asked to rank the salt-intensities of these solutions on a scale from 0 (not salty) to 5 (very salty), while the reference NaCl-solution was ranked as 1. As listed in Table 6, the most intense salty taste was found in the solution containing NaCl and Alapyridaine, as well as in the triple mixture with L-arginine. A slight impact was found for Argpyridaine and L-arginine."}, "beef taste recombinate": {"system": "beef taste recombinate", "experiment": "Effect of Alapyridaine on the taste profile of a beef broth taste recombinate", "conditions": "pH 5", "text": "The beef taste recombinate (K. Shima et al., J. Agric. Food. Chem. 1998, 46, 1465–1468) consisting of 16 amino acids, 4 sugars, three 5′-nucleotides, 3 carbonic acids, 3 salts, and 4 other compounds was used as a sample having a basic brothy taste at pH 5, i.e. (in mg/L water) threonine (68), serine (38), MSG (64), proline (16), glycine (56), alanine (192), valine (34), methionine (20), isoleucine (16), leucine (28), tyrosine (38), phenylalanine (26), lysine hydrochloride (44), histidine (38), arginine (32), taurine (248), ribose (4), mannose (8), fructose (20), glucose (40), IMP.2Na.5H20 (424), GMP.2Na7H20 (80), AMP (60), pyroglutamic acid (1296), lactic acid (3567), succinic acid (98), NaCl (854), KCl (3940), MgCl2.6H20 (1104), CaCl2.2H20 (14), H3PO4, carnosine (912), creatine (1106), and creatinine (572) were dissolved in 1 L of water, and the pH was adjusted to 5.0.\nThe sensory panel was asked to score the given taste qualities of the biomimetic beef taste recombinate on a scale from 0 (not detectable) to 5 (strong). To study the influence of Alapyridaine on the taste qualities of that recombinate, a triangle test was performed with two glass vials containing the pure beef taste recombinate, and one glass vial containing the beef taste recombinate plus a known amount of Alapyridaine. […]"}},
  "note": "Entries after “also recorded” stand apart in the source; their conditions may differ. Counter-ions that a name gives are not always drawn.",
  "data": [
    {"smiles": "CC(C(=O)[O-])[n+]1cc(O)ccc1CO", "note": "(stereo not drawn) [Alapyridaine, N-(1-carboxyethyl)-3-hydroxy-6-hydroxymethyl-pyridinium inner salt]", "values": [
      {"measurement": "Sweet detection threshold", "setting": "sweet taste of sucrose; pH 5.0", "result": 3.0, "unit": "mmol/kg water"},
      {"measurement": "Taste quality", "setting": "sweet taste of sucrose; pH 5.0", "result": "sour taste; also recorded: sweet/"},
      {"measurement": "Threshold decrease", "setting": "sweet taste of sucrose; pH 5.0", "result": 4.0},
      {"measurement": "Sweet detection threshold", "setting": "sweet taste of sucrose; pH 7.0", "result": 3.0, "unit": "mmol/kg water"},
      {"measurement": "Taste quality", "setting": "sweet taste of sucrose; pH 7.0", "result": "sweet"},
      {"measurement": "Threshold decrease", "setting": "sweet taste of sucrose; pH 7.0", "result": 4},
      {"measurement": "Sweet detection threshold", "setting": "sweet taste of sucrose; pH 9.0", "result": 1.5, "unit": "mmol/kg water"},
      {"measurement": "Taste quality", "setting": "sweet taste of sucrose; pH 9.0", "result": "sweet"},
      {"measurement": "Threshold decrease", "setting": "sweet taste of sucrose; pH 9.0", "result": 8},
      {"measurement": "Sweet detection threshold", "setting": "sweet taste of glucose; pH 5.0", "result": 6.0, "unit": "mmol/kg water"},
      {"measurement": "Taste quality", "setting": "sweet taste of glucose; pH 5.0", "result": "sweet/"},
      {"measurement": "Threshold decrease", "setting": "sweet taste of glucose; pH 5.0", "result": 8.0},
      {"measurement": "Sweet detection threshold", "setting": "sweet taste of glucose; pH 7.0", "result": 3.0, "unit": "mmol/kg water"},
      {"measurement": "Taste quality", "setting": "sweet taste of glucose; pH 7.0", "result": "sweet"},
      {"measurement": "Threshold decrease", "setting": "sweet taste of glucose; pH 7.0", "result": 16},
      {"measurement": "Sweet detection threshold", "setting": "sweet taste of glucose; pH 9.0", "result": 3.0, "unit": "mmol/kg water"},
      {"measurement": "Taste quality", "setting": "sweet taste of glucose; pH 9.0", "result": "sweet"},
      {"measurement": "Threshold decrease", "setting": "sweet taste of glucose; pH 9.0", "result": 16},
      {"measurement": "Salt-intensity", "setting": "salty taste of NaCl", "result": 0.0},
      {"measurement": "effect on taste profile of beef taste recombinate", "setting": "beef taste recombinate; 0.5 mg/L Alapyridaine added", "result": "increased the umami character and decreased the sour note"},
      {"measurement": "effect on taste profile of beef taste recombinate", "setting": "beef taste recombinate; 5 mg/L Alapyridaine added", "result": "more intense umami, sweet and salty taste and a reduced sourness"}
    ]}
  ]
}
